Each structure is given as a SMILES string. Read-outs that look alike come from different tables or passages of the source.

The values that follow come from patent US6642209B1, “Use of adenosine compounds to alleviate or normalize pathologically hyperexcited sensory nerve function in a human patient” (priority 1990, dated 2003).

Data set [1] can be described thus: Anesthesia score chart comparing anesthetic agents for the four components of anesthesia (Table 1). Further details: key: 0 no effect; 1 minimal; 2 mostly; 3 maximal. The conditions noted are these: for Antinociception (analgesia, less pain perception) / Inhibition of Stress (autonomic responses: blood pressure, heart rate; endocrine and metabolic responses) / Muscle Relaxation / Sleep (unconsciousness, amnesia, sedation): Anesthesia Score 0 to 3; for TOTALS of Anesthesia Score: sum of the four components.

The subject of data set [2] is rabbits. Description: Replacement of enflurane anesthesia by ATP infusion, electrical tail stimulation and tail clamp.
Data set [3] deals with rabbits. Description: Hypothermia induced under adenosine or ATP infusion. The data set is classed as in vivo, rabbit. On the procedure:
The hypothermic and rewarming effects of an adenosine compound are tested in experimental animals prepared similarly as in the rabbit model described herein to test for anesthetic effects, except that the body temperature is allowed to fall. In animal studies (rabbit) where the room has a temperature of approximately 22° C., the body temperature will fall from a norm of about 39° C. to about 32° C. in about three hours. If the animal is cooled further with ice bags, a temperature of approximately 22° C. can be achieved in three hours without cardiovascular decompensation. Rewarming is done with the aid of a thermal blanket and heat lamp. The effective dosages of adenosine compound ranged from about 100 μg/kg/min to about 5000 μg/kg/min.
Referring to FIG. 7, the body temperature versus time plots are shown for eight different experiments. In Run 1, adenosine 500 μg/kg/min was administered intravenously to rabbits for six hours. The administration was then stopped and the body temperatures were allowed to recover.
In Run 2, ATP 500 μg/kg/min was administered intravenously for six hours. At that time, the body temperature was 31.5° C. The animal's body temperature was allowed to recover by applying external heating for four hours when (at the arrow) the external heating was removed and the temperature was allowed to fall. The body temperature again fell.
In Run 3, ATP was administered intravenously. The body temperature stabilized after ten hours at 32.5° C.
In Runs 4, 5, and 6, adenosine was administered to rabbits until the body temperature reached a constant value. In Run 4, after five hours, the body temperature stabilized at 33° C. In Run 6, after six hours, the temperature stabilized at 31.5° C.
In Run 7, five unmedicated New Zealand rabbits were anesthetized with halothane in O2 using a face mask. The ear vein was cannulated with a 22 gauge plastic catheter for drug infusion. 500 μg/kg/min to 5500 μ/kg/min adenosine was administered IV. Body temperature was monitored through a rectal thermometer. The body temperature started at approximately 38.5° C. After the application of ice bags, the temperature dropped approximately 5.5° C./hr until a minimum body temperature of approximately 22° C. was achieved.
The ice bags were removed and external heating applied. The body temperature of all rabbits returned to normal, and the rabbits were apparently normal.
In a comparison, in Run 8, six rabbits were anesthetized with isofluane and external cooling applied.

Data set [4] deals with New Zealand white rabbits.
The test system of data set [5] is rabbits. The conditions noted are these: rabbit, in vivo.
Another data set has as its system experimental animals. Nature of the data set: Lethal to effective dose margin. The format is in vivo. To be noted: in vivo. On the procedure:
In contrast to other conventional anesthetics, the adenosine compounds are useful over a wide dose range. For example, adenosine is active over a as range of between 1 to 5000 μg/kg/min. In contrast, conventional anesthetic agents, such as isoflurane, have narrow effective ranges. The fatal to effective anesthetic ratio of isoflurane is 3.02±0.13. Other reports indicate that isoflurane has about 1.88 times the safety range of halothane. […] Of course, the anesthesiologist will err on the side of administering too little and, thereby, runs the risk of underdosing the patient. This need for caution may result in an inadequately anesthetized (subanesthetized) patient during the surgical procedure.
One great advantage observed with adenosine compounds is the wide margin for error on effective therapeutic range. This advantage is exemplified by adenosine where the lethal dose is about 100 times the dose required for analgesia, and ATP where the lethal dose is greater than 150 times the amount required for analgesia.

For data set [6], the system named is New Zealand white rabbits. Nature of the data set: Electrical tail stimulation screening: head lift (hypnotic) and escape movement (analgesic) thresholds. The format is in vivo, rabbit. The conditions noted are these: for EM (purposeful escape movement, analgesic) threshold responses / HL (head lift, hypnotic) threshold responses: increasing doses, 60% N2O baseline sedation, FIG. 1.

For data set [7], the system named is rabbits. Nature of the data set: Analgesic activity of adenosine compared with morphine sulfate, tail/ear clamp and electrical stimulation.
Setting [8] is: N2O 60%, ENF 2.0-[…], ATP 362 ± 164 μg/kg/min, Mean ± SD, n = 6.
Where [9] appears, read: Run 7, 500 to 5500 μg/kg/min IV, ice bags.
Setting [10] is: under 60% N2O, n = 6, Mean ± SD.

For the compound `FC(F)OC(F)(F)C(F)Cl` (centres unmarked) [ENF, enflurane, reference compound], in data set [1], the “Antinociception (analgesia, less pain perception)” value (from here on “Antinociception”) came to 1; the “Inhibition of Stress (autonomic responses: blood pressure, heart rate; endocrine and metabolic responses)” value (“Inhibition of Stress” below) stood at 1; the “Muscle Relaxation” value is recorded as 1; the “Sleep (unconsciousness, amnesia, sedation)” value (from here on “Sleep”) was determined as 3. Besides, the “TOTALS of Anesthesia Score” value in data set [1] is 6. In the data set with rabbits [2] (setting [8]), this compound displayed a DBP of 49 ± 18 mmHg, an HR of 255 ± 33 bpm, a PaCO2 of 25 ± 1 mmHg and a PaO2 of 148 ± 16 mmHg. Also, in the data set on rabbits [2] (setting [8]), the “RR (Respiratory Rate)” value was 72 ± 19 bpm and the SBP worked out at 69 ± 22 mmHg. Also, the “ENF level that completely inhibits responses to tail clamp” value in the data set with rabbits [2] (under 60% N2O) is given as 2-2.5%.
Turning to `[N-]=[N+]=O` [Nitrous Oxide, nitrous oxide], in data set [1], the “Antinociception” value stood at 1; the “Inhibition of Stress” value is recorded as 1; the “Muscle Relaxation” value is on record as 0; the “Sleep” value was found to be 1. Moreover, the “TOTALS of Anesthesia Score” value in data set [1] was 3.
Regarding `Nc1ncnc2c1ncn2[C@@H]1O[C@H](CO)[C@@H](O)[C@H]1O` [adenosine], in the data set with rabbits [3] (Run 4, after five hours), the “body temperature at which it stabilized” value is 33 °C. In addition, in the data set on rabbits [3] (Run 6, after six hours), the “body temperature at which it stabilized” value is 31.5 °C. In the data set on rabbits [3] (setting [9]), the “minimum body temperature achieved” value was “approximately 22 °C” and the “rate of body temperature drop” value is listed as “approximately 5.5 ° C./hr”. Also, the “survival during body temperature lowering” value in the data set with rabbits [3] (external cooling, Run 7 (five rabbits), Run 8 (six rabbits)) is “All five rabbits survived”. In the data set with rabbits [3] (external cooling, Run 7, Run 8), the “shivering during body temperature lowering” value is on record as “no shivering or other apparent discomfort was observed”. Further, the “reduction of the response to the noxious stimulation” value in data set [4] (intrathecal administration) is “as effective as intrathecal fentanyl”. Moreover, in data set [4] (rabbit, in vivo), the “Δ HR” value is −22 ± 5 bpm, the “Δ MAP” value is on record as −4 ± 5 mmHg, the “Δ PaCO2” value was −6.8 ± 2.1 mmHg and the “Δ PaO2” value is on record as “+10 ± 14”. Moreover, in data set [4] (rabbit, in vivo), the “Δ RR” value is recorded as −4 ± 10 bpm. Moreover, in the data set on rabbits [5], the “BP (Systolic BP)” value was 101 ± 19 mmHg, the HR stood at 230 ± 24 bpm, the PaCO2 is recorded as 25 ± 4 mmHg and the PaO2 is on record as 126 ± 8 mmHg. Besides, the “RR (Respiratory Rate)” value in the data set with rabbits [5] was 85 ± 19 bpm. Further, in the data set with experimental animals, the “lethal dose relative to the dose required for analgesia” value is on record as “about 100 times”. The “drug accumulation or respiratory depression” value in data set [6] (continuous infusion for prolonged times) was “did not cause drug accumulation or respiratory depression”. Besides, in data set [6], the “EM (purposeful escape movement, analgesic) threshold responses” value is reported as “elevated EM responses” and the “HL (head lift, hypnotic) threshold responses” value is “remained low”. Moreover, in data set [6] (rabbit, in vivo), the “hemodynamic responses to noxious stimulation” value is listed as “effectively blocked”. For the same compound, the “respiratory and blood gas effects” value in data set [6] (spontaneously breathing rabbits) is “maintained normal respiratory and blood gas parameters”. Further, the “dose that completely suppressed the responses to both kinds of stimulation (ED90)” value in the data set with rabbits [7] (under 60% N2O, infusion, n = 6) came to 188 ± 20 µg/kg/min.
`Cn1c(=O)c2[nH]cnc2n(C)c1=O` [aminophylline, reference compound]: the “reversal of sustained analgesia after discontinuation of ATP” value with rabbits [2] (IV aminophylline) is on record as “partially reversed”. In addition, in the data set on rabbits [7] (aminophylline 5-10 mg/kg), the “reversal of adenosine induced analgesia” value is on record as “consistently reversed”.
As to `FC(F)(F)C(Cl)Br` (centres unmarked) [halothane], in data set [1], the “Antinociception” value is 1; the “Inhibition of Stress” value turned out to be 1; the “Muscle Relaxation” value is 1; the “Sleep” value came to 3. The “TOTALS of Anesthesia Score” value in data set [1] was 6. In data set [6], the “EM (purposeful escape movement, analgesic) threshold responses” value was “consistently elevated” and the “HL (head lift, hypnotic) threshold responses” value was “consistently elevated”.
For `CN1CC[C@]23c4c5ccc(O)c4O[C@H]2[C@@H](O)C=C[C@H]3[C@H]1C5.O=S(=O)(O)O` [morphine sulfate], the “suppression of responses to stimulation” value with rabbits [7] (titrated IV to 2 mg/kg, under 60% N2O) is listed as “no animal had complete suppression of all responses”. For the same compound, in the data set with rabbits [7] (setting [10]), the “BP (Systolic BP)” value was 105 ± 14 mmHg, the HR came to 242 ± 72 bpm, the PaCO2 was 31 ± 3 mmHg and the PaO2 worked out at 123 ± 14 mmHg. Also, the “RR (Respiratory Rate)” value with rabbits [7] (setting [10]) was 47 ± 16 bpm.
